From US20250108038A1 (priority 2023, published 2025)

What was measured:
MATE1 = target: T1, MATE1 (Homo sapiens, UniProt Q96FL8); assay: Uptake transporter inhibition assay, MATE1 (metformin)
T1 sequence (Q96FL8 1-570): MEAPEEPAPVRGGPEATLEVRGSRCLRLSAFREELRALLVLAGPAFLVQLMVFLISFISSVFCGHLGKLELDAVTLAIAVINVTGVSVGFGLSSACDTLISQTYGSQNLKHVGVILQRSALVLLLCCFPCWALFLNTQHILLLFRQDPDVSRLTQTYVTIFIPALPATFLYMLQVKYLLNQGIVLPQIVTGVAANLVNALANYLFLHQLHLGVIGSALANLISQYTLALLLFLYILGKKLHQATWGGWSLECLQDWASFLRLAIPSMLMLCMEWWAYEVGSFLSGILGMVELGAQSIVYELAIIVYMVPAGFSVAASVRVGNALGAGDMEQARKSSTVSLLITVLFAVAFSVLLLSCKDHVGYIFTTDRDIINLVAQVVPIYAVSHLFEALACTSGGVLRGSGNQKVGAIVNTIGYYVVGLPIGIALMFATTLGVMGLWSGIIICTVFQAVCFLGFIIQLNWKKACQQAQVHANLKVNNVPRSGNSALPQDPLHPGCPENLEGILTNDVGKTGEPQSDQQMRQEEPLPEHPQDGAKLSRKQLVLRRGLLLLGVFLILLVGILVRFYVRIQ

OATP1B3 = target: T2, OATP1B3 (Homo sapiens, UniProt Q9NPD5); assay: Uptake transporter inhibition assay, OATP1B3 (CCK-8)
T2 sequence (Q9NPD5 1-702): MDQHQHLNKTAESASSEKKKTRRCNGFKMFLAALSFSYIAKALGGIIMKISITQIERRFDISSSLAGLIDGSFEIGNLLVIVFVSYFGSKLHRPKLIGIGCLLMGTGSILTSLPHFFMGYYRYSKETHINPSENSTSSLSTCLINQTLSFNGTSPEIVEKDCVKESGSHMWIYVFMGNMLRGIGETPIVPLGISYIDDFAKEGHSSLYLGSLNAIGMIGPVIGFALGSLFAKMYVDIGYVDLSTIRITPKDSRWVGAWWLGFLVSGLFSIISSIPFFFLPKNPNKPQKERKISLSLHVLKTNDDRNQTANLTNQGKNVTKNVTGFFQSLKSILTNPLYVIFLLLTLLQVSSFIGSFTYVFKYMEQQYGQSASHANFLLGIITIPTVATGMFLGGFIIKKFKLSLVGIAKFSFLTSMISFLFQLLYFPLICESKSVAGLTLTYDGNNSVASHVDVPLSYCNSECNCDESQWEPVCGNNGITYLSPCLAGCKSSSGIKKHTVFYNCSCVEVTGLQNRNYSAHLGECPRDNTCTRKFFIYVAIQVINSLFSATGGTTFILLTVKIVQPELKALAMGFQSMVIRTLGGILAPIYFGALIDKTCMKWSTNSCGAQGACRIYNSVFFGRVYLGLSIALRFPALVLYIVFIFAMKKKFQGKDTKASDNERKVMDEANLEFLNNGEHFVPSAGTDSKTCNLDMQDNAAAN
Method: Uptake experiments were performed using HEK293 cells stably expressing the respective uptake transporters. The assays were conducted according to the actual SOLVO uptake transporter assay protocols (PR-ASY-UPT-General Protocol for Uptake Transporter Inhibition Assays).
Cells were cultured at 37° C. in a humidified atmosphere containing 5% CO2 and were plated onto standard 96-well tissue culture plates.
Before the experiment, the medium was removed, and the cells were washed twice with 100 μL of pre-warmed (37° C.) assay buffer listed in Table 15. The cells were pre-incubated at 37° C. for 30 minutes in assay buffer containing the test article at appropriate concentrations (Table 16), appropriate solvents for solvent controls and the reference inhibitor for reference inhibitor wells. After the pre-incubation step solutions were removed. Uptake experiments were performed at 37° C. in 50 μL of assay buffer containing the probe substrate and the test article or solvent and controls.
After the experiment, cells were washed twice with 100 μL of appropriate cold buffer and lysed with 150 μL scintillation cocktail. Radiolabeled probe substrate transport was determined by liquid scintillation counting.
Uptake of the probe substrate in control cells provided background activity values for all data points.

[1] = 0.14 μM nominal, 0.08 μM NSB corrected, follow-up assay
[2] = 1.24 μM nominal, 0.79 μM NSB corrected, follow-up assay
[3] = 10.00 μM nominal, 6.50 μM NSB corrected
[4] = 11.11 μM nominal, 6.11 μM NSB corrected, follow-up assay
[5] = 33.33 μM nominal, 20.33 μM NSB corrected, follow-up assay
[6] = 100.00 μM nominal, 67.00 μM NSB corrected
[7] = 100.00 μM nominal, […] NSB corrected, follow-up assay
[8] = […] nominal, 2.37 μM NSB corrected, follow-up assay
[9] = 0.14 μM nominal, 0.09 μM NSB corrected, follow-up assay
[10] = 1.24 μM nominal, 0.86 μM NSB corrected, follow-up assay
[11] = 10.00 μM nominal, 6.60 μM NSB corrected
[12] = 11.11 μM nominal, 7.89 μM NSB corrected, follow-up assay
[13] = 33.33 μM nominal, 24.33 μM NSB corrected, follow-up assay
[14] = 100.00 μM nominal, 77.00 μM NSB corrected
[15] = 100.00 μM nominal, 100.00 μM NSB corrected, follow-up assay
[16] = […] nominal, 1.89 μM NSB corrected, follow-up assay

With `Clc1ccc(C2(OCC3OCCO3)c3ccccc3C3=NCCN32)cc1` (stereo not shown) [Compound I-19] the Relative inhibition (MATE1; [1]) was 5%, the “Relative transporter specific accumulation” value (MATE1; [1]) was 95.19 ± 6.24 % of control and the Transporter specific accumulation (MATE1; [1]) was 468.00 ± 24.27 cpm. For the same compound, the Relative inhibition (MATE1; [2]) was 19%, the “Relative transporter specific accumulation” value (MATE1; [2]) was 81.36 ± 3.96 % of control and the Transporter specific accumulation (MATE1; [2]) was 400.00 ± 11.06 cpm. For the same compound, the Relative inhibition (MATE1; [3]) was 54%, the “Relative transporter specific accumulation” value (MATE1; [3]) was 45.62 ± 4.36 % of control and the Transporter specific accumulation (MATE1; [3]) was 173.67 ± 6.31 cpm. For the same compound, the Relative inhibition (MATE1; [4]) was 63%, the “Relative transporter specific accumulation” value (MATE1; [4]) was 37.02 ± 4.79 % of control and the Transporter specific accumulation (MATE1; [4]) was 182.00 ± 22.40 cpm. For the same compound, the Relative inhibition (MATE1; [5]) was 88%, the “Relative transporter specific accumulation” value (MATE1; [5]) was 11.73 ± 1.78 % of control and the Transporter specific accumulation (MATE1; [5]) was 57.67 ± 8.46 cpm. For the same compound, the Relative inhibition (MATE1; [6]) was 101%, the “Relative transporter specific accumulation” value (MATE1; [6]) was −1.49 ± 0.63 % of control and the Transporter specific accumulation (MATE1; [6]) was −5.67 ± 2.36 cpm. For the same compound, the Relative inhibition (MATE1; [7]) was 104%, the “Relative transporter specific accumulation” value (MATE1; [7]) was −4.47 ± 0.42 % of control and the Transporter specific accumulation (MATE1; [7]) was −22.00 ± 1.89 cpm. The “maximum inhibition of MATE1-mediated metformin accumulation” value (MATE1; 2-concentration assay, Compound I-19 100 μM, Compound A 30 μM, Compound B 50 μM) was “completely inhibited”, the Maximum % inhibition (MATE1; MATE1, HEK293 cells, metformin (10 μM), NIO: no inhibition observed) was 104% and the Relative inhibition (MATE1; [8]) was 30%. The “Relative transporter specific accumulation” value (MATE1; [8]) was 70.03 ± 4.41 % of control, the Transporter specific accumulation (MATE1; [8]) was 344.33 ± 16.76 cpm and the IC50 (MATE1; follow-up assay, NSB-corrected concentrations for Compound I-19) was 8.86 µM. The “Compound A formed (Aa/Ai)” value (in vitro; 0 min) was 0.63, the “% Remaining” value (in vitro; 2.0 μM, 0 min) was 100% and the “Aa/Ai Mean (N = 2)” value (in vitro; 2.0 μM, 0 min) was 1.80. The “% Remaining” value (in vitro; 2.0 μM, 5 min) was 97.6%, the “Aa/Ai Mean (N = 2)” value (in vitro; 2.0 μM, 5 min) was 1.76 and the “% Remaining” value (in vitro; 2.0 μM, 15 min) was 97.2%. The “Aa/Ai Mean (N = 2)” value (in vitro; 2.0 μM, 15 min) was 1.75, the “% Remaining” value (in vitro; 2.0 μM, 30 min) was 93.9% and the “Aa/Ai Mean (N = 2)” value (in vitro; 2.0 μM, 30 min) was 1.69. The “Aa/Ai Mean (N = 2)” value (in vitro; 2.0 μM, 60 min) was 1.25, the T1/2 (in vitro; 2.0 μM, 60 min incubation) was 1.95 h and the “Compound A formed (Aa/Ai)” value (in vitro; 5 min) was 0.65. For the same compound, the “Compound A formed (Aa/Ai)” value (in vitro; 15 min) was 0.63, the “Compound A formed (Aa/Ai)” value (in vitro; 30 min) was 0.53 and the “Compound A formed (Aa/Ai)” value (in vitro; 60 min) was 0.38. The Relative inhibition (OATP1B3; [9]) was 1%, the “Relative transporter specific accumulation” value (OATP1B3; [9]) was 99.35 ± 3.01 % of control and the Transporter specific accumulation (OATP1B3; [9]) was 1,167.00 ± 32.35 cpm. The Relative inhibition (OATP1B3; [10]) was 8%, the “Relative transporter specific accumulation” value (OATP1B3; [10]) was 91.63 ± 3.53 % of control and the Transporter specific accumulation (OATP1B3; [10]) was 1,076.33 ± 39.37 cpm. For the same compound, the Relative inhibition (OATP1B3; [11]) was 7%, the “Relative transporter specific accumulation” value (OATP1B3; [11]) was 93.13 ± 0.99 % of control and the Transporter specific accumulation (OATP1B3; [11]) was 1,953.33 ± 8.60 cpm. For the same compound, the Relative inhibition (OATP1B3; [12]) was 20%, the “Relative transporter specific accumulation” value (OATP1B3; [12]) was 80.11 ± 4.16 % of control and the Transporter specific accumulation (OATP1B3; [12]) was 941.00 ± 47.56 cpm. The Relative inhibition (OATP1B3; [13]) was 23%, the “Relative transporter specific accumulation” value (OATP1B3; [13]) was 77.21 ± 2.52 % of control and the Transporter specific accumulation (OATP1B3; [13]) was 907.00 ± 27.52 cpm. For the same compound, the Relative inhibition (OATP1B3; [14]) was 50%, the “Relative transporter specific accumulation” value (OATP1B3; [14]) was 50.40 ± 2.21 % of control and the Transporter specific accumulation (OATP1B3; [14]) was 1,057.00 ± 45.14 cpm. For the same compound, the Relative inhibition (OATP1B3; [15]) was 61%, the “Relative transporter specific accumulation” value (OATP1B3; [15]) was 39.13 ± 2.03 % of control and the Transporter specific accumulation (OATP1B3; [15]) was 459.67 ± 23.17 cpm. The “maximum inhibition of OATP1B3-mediated CCK-8 accumulation” value (OATP1B3; 2-concentration assay, up to 100 μM (Compound A up to 30 μM)) was 50%, the Maximum % inhibition (OATP1B3; OATP1B3, HEK293 cells, CCK-8 (1 μM), NIO: no inhibition observed) was 61% and the Relative inhibition (OATP1B3; [16]) was 4%. The “Relative transporter specific accumulation” value (OATP1B3; [16]) was 96.17 ± 1.42 % of control, the Transporter specific accumulation (OATP1B3; [16]) was 1,129.67 ± 9.53 cpm and the “maximum inhibition of OATP1B3-mediated CCK-8 accumulation” value (OATP1B3; follow-up assay) was 61%. The IC50 (OATP1B3; follow-up assay, NSB-corrected concentrations) was 82.8 µM.
